Like-named read-outs stand apart in the source and are kept apart here.
What was measured:
[1] = molecular target: T1, human 5-HT1A receptor (Homo sapiens, UniProt P08908); test: Radioligand binding (saturation and competition), WT 5-HT1A
T1 construct: host or cells: HEK293T
T1 sequence (P08908 1-422): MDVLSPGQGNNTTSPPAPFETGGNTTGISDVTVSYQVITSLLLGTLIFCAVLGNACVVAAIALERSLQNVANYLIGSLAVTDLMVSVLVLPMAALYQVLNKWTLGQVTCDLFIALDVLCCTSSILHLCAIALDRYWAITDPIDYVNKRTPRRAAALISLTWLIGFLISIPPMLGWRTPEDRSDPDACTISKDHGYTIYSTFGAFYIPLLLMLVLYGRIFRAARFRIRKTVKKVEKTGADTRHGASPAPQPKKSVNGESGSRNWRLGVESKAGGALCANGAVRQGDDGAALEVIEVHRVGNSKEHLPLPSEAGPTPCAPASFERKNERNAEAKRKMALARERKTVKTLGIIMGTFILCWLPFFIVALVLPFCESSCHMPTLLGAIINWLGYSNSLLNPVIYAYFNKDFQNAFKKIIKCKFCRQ

[2] = molecular target: T2, human 5-HT1D receptor (Homo sapiens, UniProt P28221); test: Radioligand binding (saturation and competition), WT 5-HT1D
T2 construct: host or cells: HEK293T
T2 sequence (P28221 whole entry): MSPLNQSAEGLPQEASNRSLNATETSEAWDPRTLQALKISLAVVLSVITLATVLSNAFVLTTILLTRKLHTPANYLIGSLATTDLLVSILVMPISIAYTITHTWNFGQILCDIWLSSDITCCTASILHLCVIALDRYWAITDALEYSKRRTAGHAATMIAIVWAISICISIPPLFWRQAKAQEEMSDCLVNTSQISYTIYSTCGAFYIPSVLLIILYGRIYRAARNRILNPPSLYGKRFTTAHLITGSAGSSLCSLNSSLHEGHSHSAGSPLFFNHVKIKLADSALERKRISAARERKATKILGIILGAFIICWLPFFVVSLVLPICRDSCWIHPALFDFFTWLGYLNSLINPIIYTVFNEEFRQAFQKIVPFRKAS

[3] = molecular target: T3, human 5-HT1F receptor (Homo sapiens, UniProt P30939); test: Radioligand binding (saturation and competition), WT 5-HT1F
T3 construct: host or cells: HEK293T
T3 sequence (P30939 1-366): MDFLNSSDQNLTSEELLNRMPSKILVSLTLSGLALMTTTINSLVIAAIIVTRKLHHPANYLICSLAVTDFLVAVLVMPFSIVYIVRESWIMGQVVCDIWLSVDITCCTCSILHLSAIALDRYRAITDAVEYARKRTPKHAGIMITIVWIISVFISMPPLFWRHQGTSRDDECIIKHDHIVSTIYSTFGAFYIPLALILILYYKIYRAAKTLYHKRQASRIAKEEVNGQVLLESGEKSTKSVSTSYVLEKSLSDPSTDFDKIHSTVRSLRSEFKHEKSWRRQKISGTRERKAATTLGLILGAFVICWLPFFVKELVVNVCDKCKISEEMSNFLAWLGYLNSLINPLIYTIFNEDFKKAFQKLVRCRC

[4] = molecular target: T4, human 5-HT1B receptor (Homo sapiens, UniProt P28222); test: Radioligand binding (saturation and competition), WT 5-HT1B
T4 construct: host or cells: HEK293T
T4 sequence (P28222 whole entry): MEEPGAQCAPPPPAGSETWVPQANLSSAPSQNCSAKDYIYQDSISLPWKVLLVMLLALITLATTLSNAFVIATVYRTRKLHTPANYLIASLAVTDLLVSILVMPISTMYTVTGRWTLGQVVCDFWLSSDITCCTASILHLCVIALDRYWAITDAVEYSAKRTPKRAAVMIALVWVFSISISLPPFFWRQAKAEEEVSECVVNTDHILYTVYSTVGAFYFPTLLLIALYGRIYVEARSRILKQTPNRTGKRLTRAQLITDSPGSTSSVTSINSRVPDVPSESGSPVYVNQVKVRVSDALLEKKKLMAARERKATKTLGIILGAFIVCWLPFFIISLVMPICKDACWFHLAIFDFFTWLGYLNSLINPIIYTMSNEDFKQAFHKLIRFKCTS

[5] = molecular target: T1, human 5-HT1A receptor; test: cAMP accumulation (LANCE Ultra TR-FRET) in HEK293T cells, WT 5-HT1A; format: cell-based; conditions: WT receptor; normalized to basal (0%) and 10 μM 5-CT (100%)
Description: (§1) Briefly, cells transfected with the desired receptor construct and compounds were incubated in the dark for 90 min at 37 °C. After incubation, cAMP detection reagents were added, and TR-FRET was used to quantify the cAMP produced.
(§2) The functional activity of compounds was determined by stimulating cells expressing the desired receptor with FSK and test compound in parallel with 12 known concentrations of cAMP. The known concentrations of cAMP were used to create a standard curve for each experiment that was used to interpolate the unknown values of cAMP in wells with test compounds. […] The EC50 and EMAX values were determined using the “dose response – log[agonist] vs response (three parameter)” nonlinear regression model in Prism and transformed to pEC50 values, reported as mean ± SD.
(§3) Summary of functional assay conditions at various 5-HT1 receptor point mutation constructs.

[6] = molecular target: T2, human 5-HT1D receptor; test: cAMP accumulation (LANCE Ultra TR-FRET) in HEK293T cells, WT 5-HT1D; format: cell-based; conditions: WT receptor; normalized to basal (0%) and 10 μM 5-CT (100%)
Description: as §1, §2, §3

[7] = molecular target: T4, human 5-HT1B receptor; test: cAMP accumulation (LANCE Ultra TR-FRET) in HEK293T cells, WT 5-HT1B; format: cell-based; conditions: WT receptor; normalized to basal (0%) and 10 μM 5-CT (100%)
Description: as §1, §2, §3

[8] = Affinity (pKi ± SD) 5-HT1D, WT receptor, [^3H]5-CT competition, mean ± SD
[9] = Affinity (pKi ± SD) 5-HT1A, WT receptor, [^3H]5-CT competition, mean ± SD
[10] = Affinity (pKi ± SD) 5-HT1B, WT receptor, [^3H]5-CT competition, mean ± SD

With `CCCN(CCC)C1CCc2cccc(O)c2C1` (stereo not shown) [8-OH-DPAT, 8-hydroxy-N,N-dipropyl-1,2,3,4-tetrahydronaphthalen-2-amine, reference compound] the “higher affinity at the 5-HT1A receptor over 5-HT1B and 5-HT1D receptors” value ([1]; affinity ratio) was 10–20 fold.
`CN(C)[C@@H]1CCc2c(cccc2-c2ccccc2)C1` [(R)-5-PAT] was tested, and the Ki [2, 8] was 282 nM, the Ki [3] was > 10 µM and the Ki [1, 9] was 1050 nM. The Ki [4, 10] was 1320 nM.
In the case of `CCCN(CCC)[C@@H]1CCc2cccc(O)c2C1` [(R)-8-OH-DPAT, 8-hydroxy-N,N-dipropyl-1,2,3,4-tetrahydronaphthalen-2-amine, reference compound], the “5-HT1A EMAX (%)” value [5] is reported as 95 ± 4%, the “5-HT1D EMAX (%)” value [6] is reported as 96 ± 2% and the “5-HT1B EMAX (%)” value [7] is reported as 87 ± 4%.
`CN(C)[C@@H]1CCc2c(cccc2-c2ccccc2Cl)C1` [(R)-CPT] was tested, and the Ki [2, 8] was 417 nM, the Ki [3] was > 10 µM and the Ki [1, 9] was 2140 nM. The Ki [4, 10] was 72.4 nM.
In the case of `CCCN(CCC)[C@@H]1CCc2c(cccc2-c2ccccc2Cl)C1` [(R)-DCPT], the Ki [2, 8] is reported as 117 nM, the Ki [3] is reported as > 10 µM and the Ki [1, 9] is reported as 117 nM. For the same compound, the Ki [4, 10] was 55 nM.
`CCCN(CCC)[C@@H]1CCc2c(cccc2-c2ccccc2F)C1` [(R)-DFPT] was tested, and the Ki [2, 8] was 107 nM, the Ki [3] was > 10 µM and the Ki [1, 9] was 117 nM. The Ki [4, 10] was 64.6 nM.
In the case of `CN(C)[C@@H]1CCc2c(cccc2-c2ccco2)C1` [(R)-FAT], the Ki [2, 8] is reported as 214 nM, the Ki [3] is reported as > 10 µM and the Ki [1, 9] is reported as 537 nM. The Ki [4, 10] was 550 nM.
For `CN(C)[C@@H]1CCc2c(cccc2-c2ccccc2F)C1` [(R)-FPT], the Ki [2, 8] was 912 nM, the Ki [3] was > 10 µM and the Ki [4, 10] was 240 nM.
In the case of `CN(C)[C@@H]1CCc2c(cccc2-c2cccc3ccccc23)C1` [(R)-NAP], the Ki [2, 8] is reported as 107 nM, the Ki [3] is reported as > 10 µM and the Ki [1, 9] is reported as 263 nM. For the same compound, the Ki [4, 10] was 155 nM.
With `CN(C)[C@@H]1CCc2c(cccc2-c2cccn2C)C1` [(R)-NMP] the Ki [2, 8] was 316 nM, the Ki [3] was > 10 µM and the “Affinity (pKi ± SD) 5-HT1A” value ([1]; WT receptor, [^3H]5-CT competition, mean ± SD) was 6.26 ± 0.03. It also gave a Ki [4, 10] of 339 nM.
`Fc1ccccc1-c1cccc2c1CC[C@@H](N1CCCC1)C2` [(R)-PFPT] was tested, and the Ki ([2]; read-out: Affinity (pKi ± SD) 5-HT1D (converted)) was 417 nM, the Ki ([3]; WT receptor, [^3H]5-HT competition, mean ± SD, read-out: Affinity (pKi ± SD) 5-HT1F (converted)) was > 10 µM and the Ki ([1]; read-out: Affinity (pKi ± SD) 5-HT1A (converted)) was 288 nM. For the same compound, the Ki ([4]; read-out: Affinity (pKi ± SD) 5-HT1B (converted)) was 457 nM.
In the case of `CN(C)[C@@H]1CCc2c(cccc2-c2cccs2)C1` [(R)-TAT], the Ki [2, 8] is reported as 813 nM, the Ki [3] is reported as > 10 µM and the Ki [1, 9] is reported as 1510 nM. It also gave a Ki [4, 10] of 3160 nM.

Reference: PMC10797628
